Experimental data from patent US20240158446A1, “CYCLIC COMPOUND HAVING SELECTIVE INHIBITORY ACTION ON KRAS OVER HRAS AND NRAS” (CHUGAI SEIYAKU KABUSHIKI KAISHA, priority 2021, published 2024).
Read-outs that look alike come from different tables or passages of the source. *1 amine or outer side, *2 acyl side, *3 side chain or, on linkers, in order; H or OH if unused. Where a SMILES comes first, the peptide text is derived from it. Bridges are numbered along the chain shown (N, C = ends). [ ]: non-standard residue; d: D form. The star is where a group is joined. hPhe(3-Cl-4-CF3) = N[C@@H](CCc1ccc(C(F)(F)F)c(Cl)c1)C(=O)O; NPrPhe(4-CF3) = CCCN[C@@H](Cc1ccc(C(F)(F)F)cc1)C(=O)O; hPhe(3,4-Cl2) = N[C@@H](CCc1ccc(Cl)c(Cl)c1)C(=O)O; NEtPhe(4-F) = CCN[C@@H](Cc1ccc(F)cc1)C(=O)O; NMeGly(cPent) = CN[C@H](C(=O)O)C1CCCC1; Pro(4,4-F2) = O=C(O)[C@@H]1CC(F)(F)CN1; NMeD = CN[C@@H](CC(=O)O)C(=O)O; NMeL = CN[C@@H](CC(C)C)C(=O)O; X12 = N#CCN(CC(=O)[*:2])[*:1]; NMeAbu = CC[C@H](NC)C(=O)O; Morpholide = C1CN(*)CCO1; NMeA = CN[C@@H](C)C(=O)O; Ac5c = NC1(C(=O)O)CCCC1; Aze = O=C(O)[C@@H]1CCN1; Sar = CNCC(=O)O

What was measured:
[1] = molecular target: GDP-bound KRAS wild-type protein (Homo sapiens, UniProt P01116); experiment: Binding to KRAS by surface plasmon resonance (SPR), Single Cycle Kinetics; conditions: GDP-bound KRAS wild-type protein, read-out: KRAS KD
GDP-bound KRAS wild-type protein, sequence (P01116 whole entry): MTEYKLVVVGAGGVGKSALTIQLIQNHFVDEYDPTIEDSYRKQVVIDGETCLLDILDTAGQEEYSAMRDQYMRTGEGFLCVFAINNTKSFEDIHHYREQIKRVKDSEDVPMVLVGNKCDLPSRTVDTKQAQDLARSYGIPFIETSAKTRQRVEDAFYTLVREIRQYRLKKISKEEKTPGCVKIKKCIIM

[2] = molecular target: GDP-bound HRAS wild-type protein (Homo sapiens, UniProt P01112); experiment: Binding to HRAS by surface plasmon resonance (SPR), Single Cycle Kinetics; conditions: SPR, GDP-bound HRAS wild-type protein vs GDP-bound KRAS wild-type protein
GDP-bound HRAS wild-type protein, sequence (P01112 whole entry): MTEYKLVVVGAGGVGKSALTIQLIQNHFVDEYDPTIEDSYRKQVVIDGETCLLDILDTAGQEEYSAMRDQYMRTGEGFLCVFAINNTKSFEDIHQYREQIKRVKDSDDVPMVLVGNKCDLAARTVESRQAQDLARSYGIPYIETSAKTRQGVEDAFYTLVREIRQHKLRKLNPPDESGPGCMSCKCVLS

[3] = molecular target: GDP-bound NRAS wild-type protein (Homo sapiens, UniProt P01111); experiment: Binding to NRAS by surface plasmon resonance (SPR), Single Cycle Kinetics; conditions: SPR, GDP-bound NRAS wild-type protein vs GDP-bound KRAS wild-type protein
GDP-bound NRAS wild-type protein, sequence (P01111 whole entry): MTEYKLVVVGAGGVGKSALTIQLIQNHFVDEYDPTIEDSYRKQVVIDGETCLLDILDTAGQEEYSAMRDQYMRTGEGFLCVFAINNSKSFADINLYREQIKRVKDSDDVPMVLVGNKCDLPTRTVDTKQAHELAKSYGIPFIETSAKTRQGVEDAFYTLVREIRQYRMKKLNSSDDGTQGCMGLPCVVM

[4] = SPR Single Cycle Kinetics, 1:1 binding model

Row | Compound | Kd [1, 4] [nM] | HRAS/KRAS (ratio of KD value for HRAS to KD value for KRAS) [2] | NRAS/KRAS (ratio of KD value for NRAS to KD value for KRAS) [3] | Kd ([1]; SPR, Single Cycle Kinetics) [nM] | HRAS/KRAS (ratio of KD value with respect to HRAS to KD value with respect to KRAS) [2] | NRAS/KRAS (ratio of KD value with respect to NRAS to KD value with respect to KRAS) [3]
1 | CCCN1C(=O)[C@@H]2CCN2C(=O)[C@H](C)N(C)C(=O)[C@H]([C@@H](C)CC)NC(=O)[C@H](CC(C)C)N(C)C(=O)C[C@@H](C(=O)N2CCOCC2)N(C)C(=O)[C@H](C2CCCC2)N(C)C(=O)C2(CCCC2)NC(=O)[C@@H]2CCCN2C(=O)[C@H](CCc2ccc(Cl)c(Cl)c2)NC(=O)CN(C)C(=O)[C@@H]1Cc1ccc(C(F)(F)F)cc1 [PP0227] ([NMeL]I[NMeA][Aze][NPrPhe(4-CF3)][Sar][hPhe(3,4-Cl2)]P[Ac5c][NMeGly(cPent)][NMeD]-Morpholide; lactam N-11) | 0.26 | B (a compound having 3 or more and less than 10 is denoted as B) | C (A compound having a KD ratio of 0.1 or more and less than 3 is denoted as C) | – | – | –
2 | CCCN1C(=O)CN(C)C(=O)CN(C)C(=O)[C@H]([C@@H](C)CC)NC(=O)[C@H](CC)N(C)C(=O)C[C@@H](C(=O)N2CCOCC2)N(C)C(=O)[C@H](C2CCCC2)N(C)C(=O)C2(CCCC2)NC(=O)[C@@H]2CC(F)(F)CN2C(=O)[C@H](CCc2ccc(C(F)(F)F)c(Cl)c2)NC(=O)CN(C)C(=O)[C@@H]1Cc1ccc(C(F)(F)F)cc1 [PP0202] ([NMeAbu]I[Sar][Sar][NPrPhe(4-CF3)][Sar][hPhe(3-Cl-4-CF3)][Pro(4,4-F2)][Ac5c][NMeGly(cPent)][NMeD]-Morpholide; lactam N-11) | 0.076 | C (A compound having a KD ratio of 0.1 or more and less than 3 is denoted as C) | B (a compound having 3 or more and less than 10 is denoted as B) | – | – | –
3 | CCO[C@@H]1C[C@H]2C(=O)NC3(CCCC3)C(=O)N(C)[C@@H](C3CCCC3)C(=O)N(C)[C@H](C(=O)N(C)C)CC(=O)N(C)[C@@H](CC)C(=O)N[C@@H]([C@@H](C)CC)C(=O)N(C)CC(=O)N(C)[C@H]3CC(C)=C(C)CN(C3=O)[C@@H](Cc3ccc(C(F)(F)F)cc3)C(=O)N(C)CC(=O)N[C@@H](CCc3cc(F)c(C(F)(F)F)c(F)c3)C(=O)N2C1 [PP1050] | – | C (A compound having a KD ratio of 0.1 or more and less than 3 is denoted as C) | C (A compound having a KD ratio of 0.1 or more and less than 3 is denoted as C) | 0.94 | – | –
4 | CCO[C@@H]1C[C@H]2C(=O)NC3(CCCC3)C(=O)N(C)[C@@H](C3CCCC3)C(=O)N(C)[C@H](C(=O)N(C)C)CC(=O)N(C)[C@@H](CC(C)C)C(=O)N[C@@H]([C@@H](C)CC)C(=O)N(C)CC(=O)N(C)[C@H]3CCCCN(C3=O)[C@@H](Cc3ccc(C(F)(F)F)cc3)C(=O)N(C)CC(=O)N[C@@H](CCc3cc(F)c(C(F)(F)F)c(F)c3)C(=O)N2C1 [PP0579] | 0.017 | – | – | – | B (a compound having 3 or more and less than 10 is denoted as B) | C (A compound having a KD ratio of 0.1 or more and less than 3 is denoted as C)
5 | CC[C@H](C)[C@@H]1NC(=O)[C@H](CC(C)C)N(C)C(=O)C[C@@H](C(=O)N2CCOCC2)N(C)C(=O)[C@H](C2CCCC2)N(C)C(=O)C2(CCCC2)NC(=O)[C@@H]2CCCN2C(=O)[C@H](CCc2ccc(C(F)(F)F)c(Cl)c2)NC(=O)CN(C)C(=O)[C@H](Cc2ccc(F)cc2)N(CC)C(=O)[C@@H]2CCN2C(=O)[C@H](C)N(C)C1=O [PP0218] ([NMeL]I[NMeA][Aze][NEtPhe(4-F)][Sar][hPhe(3-Cl-4-CF3)]P[Ac5c][NMeGly(cPent)][NMeD]-Morpholide; lactam N-11) | 0.2 | C (A compound having a KD ratio of 0.1 or more and less than 3 is denoted as C) | C (A compound having a KD ratio of 0.1 or more and less than 3 is denoted as C) | – | – | –
6 | CCO[C@@H]1C[C@H]2C(=O)NC3(CCC3)C(=O)N(C)[C@@H](C3CCCC3)C(=O)N3CCC[C@@H]3CC(=O)N(C)[C@@H](CC)C(=O)N[C@@H]([C@@H](C)CC)C(=O)N(C)CC(=O)N(C)[C@H]3C/C=C\CCN(C3=O)[C@@H](Cc3ccc(C(F)(F)F)cc3)C(=O)N(C)CC(=O)N[C@@H](CCc3cc(F)c(C(F)(F)F)c(F)c3)C(=O)N2C1 [PP1097, (2S,8S,12R,14S,20S,26R,30S,33S,39S,41Z)-20-cyclopentyl-8-[2-[3,5-difluoro-4-(trifluoromethyl)phenyl]ethyl]-12-ethoxy-30-ethyl-4,19,29,35,38-pentamethyl-33-[(1 S)-1-methylpropyl]-2-[[4-(trifluoromethyl)phenyl]methyl]spiro[1,4,7,10,16,19,22,29,32,35,38-undecazatetracyclo[37.5.1.0^10,14.022,26]pentatetracont-41-ene-17,1′-cyclobutane]-3,6,9,15,18,21,28,31,34,37,45-undecone] | – | B (a compound having 3 or more and less than 10 is denoted as B) | B (a compound having 3 or more and less than 10 is denoted as B) | 0.12 | – | –
7 | CCO[C@@H]1C[C@H]2C(=O)NC3(CCC3)C(=O)N(C)[C@@H](C3CCCC3)C(=O)N(C)[C@H](C(=O)N3CCOCC3)CC(=O)N(C)[C@@H](COC)C(=O)N[C@@H]([C@@H](C)CC)C(=O)N3CC[C@H]3C(=O)N(C)[C@H]3CCCCCN(C3=O)[C@@H](Cc3ccc(C(F)(F)F)cc3)C(=O)N(C)CC(=O)N[C@@H](CCc3cc(F)c(C(F)(F)F)c(F)c3)C(=O)N2C1 [PP0863] | – | B (a compound having 3 or more and less than 10 is denoted as B) | B (a compound having 3 or more and less than 10 is denoted as B) | 0.6 | – | –
8 | CCCN1C(=O)CN(C)C(=O)CN(CC#N)C(=O)[C@H]([C@@H](C)CC)NC(=O)[C@H](CC(C)C)N(C)C(=O)C[C@@H](C(=O)N2CCOCC2)N(C)C(=O)[C@H](C2CCCC2)N(C)C(=O)C2(CCCC2)NC(=O)[C@@H]2CCCN2C(=O)[C@H](CCc2ccc(C(F)(F)F)c(Cl)c2)NC(=O)CN(C)C(=O)[C@@H]1Cc1ccc(C(F)(F)F)cc1 [PP0254] ([NMeL]I[X12][Sar][NPrPhe(4-CF3)][Sar][hPhe(3-Cl-4-CF3)]P[Ac5c][NMeGly(cPent)][NMeD]-Morpholide; lactam N-11) | 0.16 | C (A compound having a KD ratio of 0.1 or more and less than 3 is denoted as C) | B (a compound having 3 or more and less than 10 is denoted as B) | – | – | –
9 | CC[C@H](C)[C@@H]1NC(=O)[C@@H]2CCC/C=C/c3ccc(cc3)C[C@@H](C(=O)N(C)CC(=O)N[C@@H](CCc3ccc(Cl)c(Cl)c3)C(=O)N3C[C@H](OC4CCCC4)C[C@H]3C(=O)NC3(CC(C)(C)C3)C(=O)N(C)[C@@H](C3CCCC3)C(=O)N(C)[C@H](C(=O)N3CCCC3)CC(=O)N2C)N2CC/C=C\C[C@@H](C2=O)N(C)C(=O)CN(C)C1=O [PP3054] | – | A (a compound having 10 or more and less than 20 is denoted as A) | A (a compound having 10 or more and less than 20 is denoted as A) | 0.27 | – | –
